Laboratory results taken from patent US20240336657A1, “G-ALPHA-S PEPTIDE INHIBITORS AND USES THEREOF” (The Regents of the University of California, priority 2021, published 2024).
Positions of bridges follow the written chain, without caps; N, C: chain ends. Non-standard residues stand in square brackets, D forms with d. Residues, ends and D or L forms follow the SMILES beside them. *: point of attachment. NH(CH2CH2O)2(CH2)6Cl = ClCCCCCCOCCOCCN*

Key:
GppNHp-bound Gαs = GppNHp-bound Gαs (Homo sapiens, UniProt P63092); assay: Bio-layer interferometry (BLI) binding kinetics; design: hexahistidine (N, cleaved yes); made in house; host or cells: Escherichia coli BL21(DE3); details: highest concentration tested
Sequence of GppNHp-bound Gαs (P63092 with tags, fused parts or gaps isoform P63092-2): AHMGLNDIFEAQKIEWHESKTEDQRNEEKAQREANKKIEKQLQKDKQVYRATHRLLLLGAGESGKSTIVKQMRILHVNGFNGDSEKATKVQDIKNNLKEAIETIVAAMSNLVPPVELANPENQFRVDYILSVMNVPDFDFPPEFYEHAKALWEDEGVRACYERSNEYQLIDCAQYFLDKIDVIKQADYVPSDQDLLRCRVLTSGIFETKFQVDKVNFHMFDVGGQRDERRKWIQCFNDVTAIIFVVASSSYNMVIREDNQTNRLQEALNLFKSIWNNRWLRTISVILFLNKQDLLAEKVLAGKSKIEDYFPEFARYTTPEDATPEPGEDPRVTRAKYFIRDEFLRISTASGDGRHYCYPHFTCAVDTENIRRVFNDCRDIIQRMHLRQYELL
Protocol: (§1) BLI experiments were performed using an OctetRED384 instrument from ForteBio. All experiments were performed at 25° C. using BLI buffer (10 mM HEPES pH 7.4, 150 mM NaCl, 1 mM MgCl2, 0.05% Tween-20, 0.1% DMSO, 0.2 mM GppNHp or GDP). Cyclic peptides were diluted to a series of concentrations in BLI buffer plus 10 μM Biotin. Assays were conducted in Greiner 384well, black, flat bottom polypropylene plates containing the protein solutions, BLI buffer plus 10 μM Biotin for dissociation, and serial dilutions of cyclic peptides to be tested.
(§2) Biotinylated proteins were immobilized on Streptavidin biosensors by dipping sensors into plate wells containing protein solutions at a concentration of 100-150 nM. Protein loading is around 2-3 nm. Sensors loaded with proteins were moved and dipped into wells with BLI buffer plus 10 μM Biotin to block unlabeled Streptavidin. Association-dissociation cycles of compounds were started by moving and dipping sensors to cyclic peptides dilutions and BLI buffer plus 10 μM Biotin wells alternatively. Association and dissociation times were carefully determined to ensure full association and dissociation.
(§3) Raw kinetic data collected were processed with the Data Analysis software provided by the manufacturer using single reference subtraction in which buffer-only reference was subtracted (For GN13 analysis). Because GD20 analogs have a low level of background binding, we used a double reference subtraction (buffer-only reference and non-protein-loading reference) method to calculate their kinetics values. The resulting data were analyzed based on a 1:1 binding model from which kon and koff values were obtained and then Kd values were calculated.

Gαi = Gαi (Homo sapiens, UniProt P63096); assay: Nucleotide exchange step (GDP dissociation / GTPγS binding); assay type: biochemical; details: compared with Gαs
Sequence of Gαi (P63096 whole entry): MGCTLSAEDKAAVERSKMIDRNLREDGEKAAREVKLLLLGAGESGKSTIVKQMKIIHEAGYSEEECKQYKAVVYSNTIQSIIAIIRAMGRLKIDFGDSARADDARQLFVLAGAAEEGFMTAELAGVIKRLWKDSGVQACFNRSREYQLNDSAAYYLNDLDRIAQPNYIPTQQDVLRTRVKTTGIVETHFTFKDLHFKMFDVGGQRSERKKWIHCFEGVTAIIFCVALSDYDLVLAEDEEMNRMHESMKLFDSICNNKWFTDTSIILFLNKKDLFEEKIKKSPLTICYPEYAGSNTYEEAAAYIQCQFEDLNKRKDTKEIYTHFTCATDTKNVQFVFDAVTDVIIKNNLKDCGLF
Protocol: (§4) Gα proteins were diluted to 400 nM in the EDTA buffer (20 mM HEPES 7.5, 150 mM NaCl, 1 mM EDTA-Na 8.0, 2 mM DTT). [^3H]GDP (1 mCi/mL, 25.2 μM) was added to a final concentration of 1.2 μM, followed by cyclic peptides addition. After incubation at 20° C. for 30 minutes, the same volume of assay buffer ([…] HEPES-Na 7.5, 150 mM NaCl, 2 mM MgCl2, and 1 mM GDP) was added to initiate [^3H]GDP dissociation. At various points, […] was removed and mixed with 390 μL of ice-cold wash buffer (20 mM HEPES 7.5, 150 mM NaCl, 20 mM MgCl2). The mixture was immediately filtered through a mixed cellulose membrane (25 mm, 0.22 μm) held by a microanalysis filter holder (EMD Millipore). The membrane was washed by ice-cold wash buffer (500 μL×3), put in a 6-mL plastic vial and air-dried (room temperature 1.5 h). 5 mL of CytoScint-ES Liquid Scintillation Cocktail was added to each vial. After incubation overnight at room temperature, the vial was used for liquid scintillation counting with a LS 6500 Multi-Purpose Scintillation Counter.
Gα proteins were diluted to 10 μM with dilution buffer (20 mM HEPES 7.5, 150 mM NaCl, 1 mM MgCl2, 2 mM DTT, and 20 μM GDP) and incubated with 5× stocks of cyclic peptides at room temperature for 2 hours. GTPγS binding was initiated by mixing with the reaction buffer at room temperature (50 nM [35S]GTPγS and 100 μM GTPγS in dilution buffer) at room temperature. […]

GppNHp-bound Gαi1 = target: T1, GppNHp-bound Gαi1 (Homo sapiens, UniProt P63096); assay: Bio-layer interferometry (BLI) binding; details: highest concentration tested
T1 construct: hexahistidine (N, cleaved yes); made in house; host or cells: Escherichia coli BL21(DE3)
T1 sequence (P63096 with tags, fused parts or gaps): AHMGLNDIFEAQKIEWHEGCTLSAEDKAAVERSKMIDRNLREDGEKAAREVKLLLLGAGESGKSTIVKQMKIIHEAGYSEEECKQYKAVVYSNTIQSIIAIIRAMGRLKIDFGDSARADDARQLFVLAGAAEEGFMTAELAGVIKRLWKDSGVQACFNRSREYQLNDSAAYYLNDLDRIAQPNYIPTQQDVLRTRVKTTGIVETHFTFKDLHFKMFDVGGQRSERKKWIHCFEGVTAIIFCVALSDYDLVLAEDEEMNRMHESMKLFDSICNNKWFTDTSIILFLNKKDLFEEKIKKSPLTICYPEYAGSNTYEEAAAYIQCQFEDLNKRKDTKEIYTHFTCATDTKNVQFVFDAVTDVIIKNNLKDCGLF
Protocol: as §1, §2, §3

GDP-bound Gαi1 = target: T2, GDP-bound Gαi1 (Homo sapiens, UniProt P63096); assay: Bio-layer interferometry (BLI) binding; details: highest concentration tested
T2 construct: hexahistidine (N, cleaved yes); made in house; host or cells: Escherichia coli BL21(DE3)
T2 sequence (P63096 with tags, fused parts or gaps): as above
Protocol: as §1, §2, §3

Gαs [1] = target: T3, Gαs (Homo sapiens, UniProt P63092); assay: GTPγS binding assay ([35S]GTPγS); assay type: biochemical; design: made in house; host or cells: Escherichia coli BL21(DE3)
T3 sequence (P63092 1-380 isoform P63092-2): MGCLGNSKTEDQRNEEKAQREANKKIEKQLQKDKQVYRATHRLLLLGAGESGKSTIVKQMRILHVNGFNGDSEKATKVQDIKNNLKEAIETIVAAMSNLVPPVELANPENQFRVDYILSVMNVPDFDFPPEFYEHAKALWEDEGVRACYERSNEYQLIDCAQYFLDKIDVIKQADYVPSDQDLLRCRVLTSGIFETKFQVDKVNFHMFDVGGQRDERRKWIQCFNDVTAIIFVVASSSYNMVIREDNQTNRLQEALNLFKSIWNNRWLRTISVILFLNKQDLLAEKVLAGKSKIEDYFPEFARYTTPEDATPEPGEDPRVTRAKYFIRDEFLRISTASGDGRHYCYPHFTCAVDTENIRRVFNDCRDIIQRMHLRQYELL
Protocol: Gα proteins were diluted to 10 μM with dilution buffer (20 mM HEPES 7.5, 150 mM NaCl, 1 mM MgCl2, 2 mM DTT, and 20 μM GDP) and incubated with 5× stocks of cyclic peptides at room temperature for 2 hours. GTPγS binding was initiated by mixing with the reaction buffer at room temperature (50 nM [35S]GTPγS and 100 μM GTPγS in dilution buffer) at room temperature. At various time points, 10 μL of the sample was removed and mixed with 390 μL of ice-cold wash buffer (20 mM HEPES 7.5, 150 mM NaCl, 20 mM MgCl2). The mixture was filtered through a mixed cellulose membrane (25 mm, 0.22 μm). The membrane was washed by ice-cold wash buffer (500 μL×3), put in a 6-mL plastic vial and air-dried (room temperature 1.5 h). 5 mL of CytoScint-ES Liquid Scintillation Cocktail (MP Biomedicals) was added to each vial. After incubation overnight at room temperature, the vial was used for liquid scintillation counting with a LS 6500 Multi-Purpose Scintillation Counter. A standard curve was generated using [35S]GTPγS. The radioactive activity (Counts per minute) of the samples were converted to the GTPγS concentration. The GTPγS binding curves were fitted by the software GraphPad Prism using the following equation to calculate the apparent GTPγS binding rates (kapp): […]
in which “Y” is the concentration of GTPγS that bound to Gα protein at time “X” (minutes).

Gαs [2] = target: T3, Gαs; assay: GDP dissociation assay ([3H]GDP); assay type: biochemical; design: made in house; host or cells: Escherichia coli BL21(DE3)
Protocol: as §4
The GDP dissociation curves were fitted by the software GraphPad Prism using the following equation to calculate the dissociation rates (koff): […]
in which “Y” is the radioactivity (Counts per minute) of the sample at time “X” (minutes), and Y0 is the calculated radioactivity of the sample at the time point 0.

GDP-bound Gαs = target: T4, GDP-bound Gαs (Homo sapiens, UniProt P63092); assay: Bio-layer interferometry (BLI) binding kinetics; details: GDP/Gαs
T4 construct: hexahistidine (N, cleaved yes); made in house; host or cells: Escherichia coli BL21(DE3)
Protocol: as §1, §2, §3

[3] = test system: HeLa cells stably expressing HaloTag; assay: Chloroalkane penetration assay (CAPA); assay type: in vitro ADME, human
Excerpt: We first tested the cell permeability of GD20, as peptide-based chemical probes often suffer from poor cell permeability. […] In order to quantitatively evaluate the cell permeability of GD20, we used a recently developed HaloTag-based assay known as a chloroalkane penetration assay (CAPA) (Figure S6I) (Peraro et al., 2018). HeLa cells stably expressing HaloTag localized to the mitochondrial outer membrane were pulsed with chloroalkane-tagged molecules (ct-molecule), washed, chased with chloroalkane-tagged TAMRA fluorophore (ct-TAMRA), and finally analyzed by flow cytometry. A lower ct-TAMRA fluorescent signal indicates competition from a higher cytosolic concentration of ct-molecule. The carboxyl terminus of GD20 (G15) was conjugated with a chloroalkane tag to make ct-GD20 (FIG. 23A).
The cell lines used for CAPA were HeLa cell lines, generated by Chenoweth and co-workers, that stably express HaloTag exclusively in the cytosol (Peraro et al., 2018). Cells were seeded in a 96-well plate the day before the experiment at a density of 4×10^4 cells per well. The day of the experiment the media was aspirated, and 100 μL of cyclic peptide dilutions in DMEM were added to the cells. Plate was incubated for 19.5 h at 37° C. with 5% CO2. […] The cells were then trypsinized, quenched with DMEM, resuspended in PBS, and analyzed using a benchtop flow cytometer (CytoFLEX, Beckman).

[4] = target: T5, Biotinylated His/Avi-tagged Gαs used in the RaPID selection, GppNHp-bound (human, UniProt P63092 7-394, biotin on the Avi tag (BirA co-expressed)); assay: RaPID comparison selection: peptide-mRNA-cDNA complexes on Gαs-immobilized streptavidin beads, qPCR and sequencing
T5 construct: Immobilized on streptavidin magnetic beads
T5 sequence (P63092 other isoform, or with tags, fused parts or gaps limits assumed): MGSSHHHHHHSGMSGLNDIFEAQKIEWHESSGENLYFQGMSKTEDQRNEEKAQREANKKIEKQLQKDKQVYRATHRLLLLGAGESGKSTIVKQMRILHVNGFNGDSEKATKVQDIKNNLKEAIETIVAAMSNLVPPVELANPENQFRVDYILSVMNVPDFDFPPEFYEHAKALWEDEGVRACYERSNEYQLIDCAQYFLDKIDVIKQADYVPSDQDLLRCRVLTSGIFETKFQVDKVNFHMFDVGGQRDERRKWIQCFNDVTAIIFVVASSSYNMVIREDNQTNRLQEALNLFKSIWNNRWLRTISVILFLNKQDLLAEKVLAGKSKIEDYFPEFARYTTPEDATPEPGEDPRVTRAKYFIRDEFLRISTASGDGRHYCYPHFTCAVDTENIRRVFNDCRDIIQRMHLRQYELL

[5] = target: Biotinylated Avi-tagged WT Gαs (residues 7-380 of the short isoform of human Gαs), GppNHp-bound (human) (UniProt P63092); assay: TR-FRET competition: biotinylated Gαs WT (GppNHp-bound) with His-tagged adenylyl cyclase (VC1/IIC2) as the blocked partner; peptide concentration varied
Sequence of Biotinylated Avi-tagged WT Gαs (residues 7-380 of the short isoform of human Gαs), GppNHp-bound (human) (P63092 other isoform, or with tags, fused parts or gaps limits assumed): as the sequence (P63092 with tags, fused parts or gaps isoform P63092-2) above

[6] = target: T6, Biotinylated Avi-tagged WT Gαs (residues 7-380 of the short isoform of human Gαs), GDP-bound (human, UniProt P63092 7-394, biotin on the Avi tag (BirA)); assay: TR-FRET competition: biotinylated Gαs or Gαi (GDP) against His-Gβγ(C68S)
T6 construct: Loaded with GDP; Same polypeptide as m7, other nucleotide state; also called biotinylated Gαs WT
T6 sequence (P63092 other isoform, or with tags, fused parts or gaps limits assumed): as the sequence (P63092 with tags, fused parts or gaps isoform P63092-2) above
Protocol: (§5) Biotinylated avi-Gαs (6-end, WT) and avi-Gαi (FL, WT) were diluted to 32 nM (8×) using assay buffer (1× PBS 7.4, 2 mM DTT, 0.1% BSA, 2 mM MgCl₂, 0.05% Tween plus 0.5 mM GDP), followed by mixing with a same volume of 8× streptavidin XL665 stock (32 nM in the assay buffer). 8× His-Gβ/γ (C68S) stock (16 nM) and 8× anti-6His-Tb cryptate stock (0.4 μg/mL) were added into the Gα/XL665 mixtures. Finally, 2× stocks of cyclic peptides were added with the protein mixtures. After incubation at room temperature for 2 hour at room temperature. […] FRET Signal was calculated as the ratio of [Read B]/[Read A].

[7] = target: T6, Biotinylated Avi-tagged WT Gαs …; assay: TR-FRET competition: biotinylated GDP-bound Gαs WT against His-Gβγ(C68S)
Protocol: as §5

[8] = target: WT Gαs (purified, steady-state GTPase, GDP dissociation and GTPγS binding assays) (UniProt P63092-2 7-380); assay: cell-based or functional assay
Sequence of WT Gαs (purified, steady-state GTPase, GDP dissociation and GTPγS binding assays) (P63092 other isoform, or with tags, fused parts or gaps limits assumed): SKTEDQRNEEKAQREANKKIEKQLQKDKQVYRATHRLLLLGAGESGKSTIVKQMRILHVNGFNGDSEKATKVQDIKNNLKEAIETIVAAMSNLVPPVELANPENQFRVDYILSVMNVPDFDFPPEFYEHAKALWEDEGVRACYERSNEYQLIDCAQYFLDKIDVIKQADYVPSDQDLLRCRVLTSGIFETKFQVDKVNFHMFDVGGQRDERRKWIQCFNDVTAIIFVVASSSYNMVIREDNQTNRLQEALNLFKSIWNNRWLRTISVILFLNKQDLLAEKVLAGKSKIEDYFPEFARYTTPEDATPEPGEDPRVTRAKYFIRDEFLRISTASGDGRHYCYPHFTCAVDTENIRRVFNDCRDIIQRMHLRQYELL

Molecule: CC[C@H](C)[C@@H]1NC(=O)[C@H](CC(C)C)NC(=O)[C@@H](Cc2ccc(O)cc2)NC(=O)CSC[C@@H](C(=O)NCC(N)=O)NC(=O)[C@@H]2CCCN2C(=O)[C@H](CC(C)C)NC(=O)[C@H](CC(N)=O)NC(=O)[C@H](Cc2ccccc2)NC(=O)[C@H](C)NC(=O)[C@H](Cc2c[nH]c3ccccc23)NC(=O)[C@H](CCC(N)=O)NC(=O)[C@H](CCCNC(=N)N)NC(=O)[C@H](Cc2ccccc2)NC(=O)[C@H]([C@@H](C)O)NC1=O [GD20] ({CH2CO}-[dY]LITFRQWAFNLPCG-NH2; thioether N-14)
- binding to GppNHp-bound Gαs (GppNHp-bound Gαs): no detectable binding
- sensitivity of the nucleotide exchange step of Gαi (Gαi): much less sensitive
- binding to GppNHp-bound Gαi1 (GppNHp-bound Gαi1): no detectable binding
- binding to GDP-bound Gαi1 (GDP-bound Gαi1): no detectable binding
- effect on the apparent rate of GTPγS binding (kapp) to Gαs (Gαs [1]): drastically reducing
- effect on Gαs GDP dissociation rates (koff) (Gαs [2]): drastically reducing
- Kd (GDP-bound Gαs): 31.4 ± 0.7 nM
- koff (GDP-bound Gαs): 0.00343 s⁻¹
- kon (GDP-bound Gαs): 109000 M⁻¹ s⁻¹

Molecule: CC[C@H](C)[C@@H]1NC(=O)[C@H](CC(C)C)NC(=O)[C@@H](Cc2ccc(O)cc2)NC(=O)CSC[C@@H](C(=O)NCC(=O)NCCOCCOCCCCCCCl)NC(=O)[C@@H]2CCCN2C(=O)[C@H](CC(C)C)NC(=O)[C@H](CC(N)=O)NC(=O)[C@H](Cc2ccccc2)NC(=O)[C@H](C)NC(=O)[C@H](Cc2c[nH]c3ccccc23)NC(=O)[C@H](CCC(N)=O)NC(=O)[C@H](CCCNC(=N)N)NC(=O)[C@H](Cc2ccccc2)NC(=O)[C@H]([C@@H](C)O)NC1=O [ct-GD20] ({CH2CO}-[dY]LITFRQWAFNLPCG-{NH(CH2CH2O)2(CH2)6Cl}; thioether N-14)
- cell permeability (CAPA) [3]: cell permeable

B1: GN10 (peptide)
peptide: Ac-[dY]HEQFDNFCDLWCG-NH2
modifications: thioether (positions not given here); also: thioether partner Cys9 or Cys13 not settled
- fold selectivity for GppNHp-bound over GDP-bound Gαs [4]: > 100 fold
- IC50 (read off the curve) [5]: 200 nM

B2: GD20 (peptide)
peptide: {CH2CO}-[dY]LITFRQWAFNLPCG-NH2
modifications: thioether N-14
SMILES: CC[C@H](C)[C@@H]1NC(=O)[C@H](CC(C)C)NC(=O)[C@@H](Cc2ccc(O)cc2)NC(=O)CSC[C@@H](C(=O)NCC(N)=O)NC(=O)[C@@H]2CCCN2C(=O)[C@H](CC(C)C)NC(=O)[C@H](CC(N)=O)NC(=O)[C@H](Cc2ccccc2)NC(=O)[C@H](C)NC(=O)[C@H](Cc2c[nH]c3ccccc23)NC(=O)[C@H](CCC(N)=O)NC(=O)[C@H](CCCNC(=N)N)NC(=O)[C@H](Cc2ccccc2)NC(=O)[C@H]([C@@H](C)O)NC1=O
notes: also called cyclic peptide GD20
- fold selectivity for Gαs over Gαi [6]: ≥ 100 fold
- IC50 [7]: 18.4 nM
- IC50, inhibition of Gαs steady-state GTPase activity [8]: 1150 nM
